The numbers were not newly measured in patent US20040235792A1, “Serine protease inhibitors compromising a hydrogen-bond acceptor” (priority 2001, published 2004), which cites them from elsewhere.

One may read the pKa as the negative logarithm of the acid dissociation constant. What is called IC50 is the concentration needed to halve the response being measured.

In one series the target is thrombin (Homo sapiens, UniProt P00734). To be noted: cited from earlier work; for KassThr/KassThy: selectivity ratio.
The conditions of series [1]: cited from earlier work.
In the next series the target is protein Ca (Homo sapiens, UniProt P04070). To be noted: read-out: IC50 (protein Ca system); cited from earlier work.
protein Ca, sequence (P04070 212-461 limits assumed): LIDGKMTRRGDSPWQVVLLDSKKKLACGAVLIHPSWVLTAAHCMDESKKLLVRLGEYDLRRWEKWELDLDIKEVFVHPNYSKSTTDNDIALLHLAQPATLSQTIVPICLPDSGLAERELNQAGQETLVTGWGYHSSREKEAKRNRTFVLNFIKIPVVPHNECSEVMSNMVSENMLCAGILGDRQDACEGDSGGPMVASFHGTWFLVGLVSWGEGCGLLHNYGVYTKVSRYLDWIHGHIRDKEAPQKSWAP
protein Ca, sequence (P04070 43-197 partner limits assumed): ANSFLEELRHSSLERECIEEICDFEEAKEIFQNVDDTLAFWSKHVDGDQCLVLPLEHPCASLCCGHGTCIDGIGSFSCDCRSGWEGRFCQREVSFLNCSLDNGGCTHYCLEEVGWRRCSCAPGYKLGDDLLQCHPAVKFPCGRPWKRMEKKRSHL

Where a SMILES comes first, the peptide text is derived from it. [ ]: non-standard residue; d: D form. dPip = O=C(O)[C@H]1CCCCN1

On to `CC(C)N(CC(=O)N[C@H](C=O)CCCNC(=N)N)C(=O)[C@H]1CCCCN1` [D-hPro-(Nα-isopropyl)Gly-Arg-H], for which, at thrombin, the KassThr/KassThy is 20.
`CN[C@H](Cc1ccccc1)C(=O)N1CCC[C@H]1C(=O)N[C@H](C=O)CCCN=C(N)N` [LY294468, H-D-MePhe-Pro-Arginal]: on thrombin, the KassThr was 5.4e+06 L/mol and the KassThr/KassThy was 5.1.
For `c1ccc2ncccc2c1` [quinoline], the pKa in series [1] is listed as 4.0.
`CC(=O)NC(Cc1ccccc1)C(=O)N1CCCC1C(=O)NC(CCCNC(=N)N)B(O)O` [DuP 714, Ac-D-Phe-Pro-boro Arg-OH]: the IC50 on protein Ca is 750 nM.
As to `N=C(N)NCCC[C@@H](C=O)NC(=O)[C@@H]1CCCN1C(=O)[C@H]1CCCCN1` [D-hPro-Pro-Arg-H] (H-[dPip]-Pro-Arg-aldehyde), the KassThr on thrombin was 2e+06 L/mol.
